Values joined by “and” are separate entries in the source; they are usually repeats but may differ in a detail not shown here. Equal values may be shown once.
What was measured:
[1] = test system: dimethylnitrosamine (DMN)-induced liver injury male SD rats; assay: Liver function-improving activities by oral administration in the liver injury model (1), 3 weeks; type: in vivo, rat; conditions: serum, 25 mg/kg oral once a day
Source text: The compounds according to the present invention were orally administered to dimethylnitrosamine (DMN)-induced liver injury male SD rats for 3 weeks, so as to evaluate liver function-improving activities. Specifically, 7-week-old male SD rats (Orient Bio, Korea) were accommodated to the laboratory environment at room temperature for 7 days. General symptoms were observed and then only healthy animals were used for the experiment. The rats were divided into 9 groups (n=5 for each group), the normal control group, the group to which only DMN is administered, and the groups to which both the compound of the present invention (the compounds of Example 2, 5, 6, 9, 10, 20 or 21) and DMN are administered. DMN was dissolved in purified water and then administered intraperitoneally at the dose of 10 mg/kg for 3 consecutive weeks (3 times per week, for 4 weeks). Blood samples were collected on Day 3 after the completion of the first-week liver injury inducement and then the ALT (Alanine Transaminase) values and the AST (Aspartate Transaminase) values were measured so as to confirm the liver injury thereof. The compounds of the present invention were administered for 3 weeks, i.e., from Day 4 after the completion of the first-week liver injury inducement to the DMN-administering period. The seven compounds of the present invention were dissolved in purified water or corn oil and then orally administered, using an oral sonde, at the dose of 25 mg/kg once a day for 3 weeks. Blood samples were collected on Day 0 (3 days after the completion of the first-week liver injury inducement) and Day 7, 14 and 21 after the administration of the test compounds. The collected blood was injected into a vacutainer tube containing a clot activator and then allowed to stand at room temperature for about 20 minutes so as to coagulate each blood sample. After centrifugation for 10 minutes, the resulting serums were subjected to blood-biochemical tests.

Hela cells = assay: Autophagy-inducing activities in Hela cells (Autophagy Detection Kit); type: cell-based
Method: The autophagy-inducing activities of the compounds of the present invention were measured in Hela cells (Korean Cell Line Bank), using the Autophagy Detection Kit (ab139484, Abcam), according to the manufacturer's instructions. Specifically, 100 μL of EBSS (Earle's Balanced Salt Solution, WELGENE (LB 002-03)) containing 10% fetal bovine serum (FBS) was added to each well of a 96-well plate. Hela cells (1×10^4 cells) were added to each well and then incubated overnight at 37° C. in a CO2 incubator so as to stabilize the cells. The medium of each well containing the stabilized cells was replaced with a medium obtained by adding 10 nM or 100 nM of the compounds prepared in Examples (test compounds) to a EBSS containing 10% FBS. As a positive control, rapamycin was dissolved in dimethyl sulfoxide and then treated at a concentration of 500 nM per well. After the treatments, the cells were incubated at 37° C. in a CO2 incubator for 4 hours or 24 hours and then washed twice with the 1× assay buffer (prepared by adding 9 mL of distilled water to the 10× assay buffer). EBSS containing 5% fetal bovine serum, 1 μL/ml of Green detection reagent and 1 μL/ml of Nuclear stain was added thereto in the amount of 100 μL per well. The cells were incubated for 1 hour at 37° C. in a CO2 incubator and then washed twice with the 1× assay buffer. The absorbance values were measured at 488 nm, using a microplate reader (Cytation 3). The tests were repeated four times.
The absorbance values, which were obtained by treating Hela cells with the test compounds (100 nM) and the positive control (rapamycin, 500 nM) and then incubating for 4 hours as described in above, are shown in Table 1 below. And also, the absorbance values, which were obtained by treating Hela cells with the test compounds (10 nM or 100 nM) and the positive control (rapamycin, 500 nM) and then incubating for 24 hours as described in above, are shown in Table 2 below.

[2] = test system: dimethylnitrosamine (DMN)-induced liver injury male SD rats; assay: Liver function-improving activities by oral administration in the liver injury model (2), 4 weeks, serum ALT/AST and liver histology; type: in vivo, rat; conditions: for ALT values (average value) / AST values (average value): serum
Source text: The compounds according to the present invention were orally administered to dimethylnitrosamine (DMN)-induced liver injury male SD rats for 4 weeks, so as to evaluate liver function-improving activities. Specifically, 7-week-old male SD rats (Orient Bio, Korea) were accommodated to the laboratory environment at room temperature for 7 days. General symptoms were observed and then only healthy animals were used for the experiment. The rats were divided into 3 groups (n=10 for each group), the normal control group, the group to which only DMN is administered, and the group to which both the compound of the present invention (the compound of Example 21) and DMN are administered. DMN was dissolved in purified water and then administered intraperitoneally at the dose of 10 mg/kg for 3 consecutive weeks (3 times per week, for 4 weeks). Blood samples were collected after the completion of the fourth-week liver injury inducement and then the ALT (Alanine Transaminase) values and the AST (Aspartate Transaminase) values were measured so as to confirm the liver injury thereof. The compound of the present invention was administered for 4 weeks, from Day 1 after the completion of the fourth-week liver injury inducement. The compound of the present invention (the compound of Example 21) was dissolved in purified water and then orally administered, using an oral sonde, at the dose of 25 mg/kg once a day for 4 weeks. Blood samples were collected on Day 0 (1 day after the completion of the fourth-week liver injury inducement) and Day 7, 14, 21 and 28 after the administration of the test compound. The collected blood was injected into a vacutainer tube containing a clot activator and then allowed to stand at room temperature for about 20 minutes so as to coagulate each blood sample. After centrifugation for 10 minutes, the resulting serums were subjected to blood-biochemical tests. In addition, at 24 hours after the last administration, an autopsy for hepatectomy and fixation was performed to prepare the tissue specimens thereof. After preparing the slides with the tissue specimens, hematoxylin and eosin (H&E) staining was performed thereon for microscopic observation of damages to liver tissue and inflammatory cell infiltrations in liver tissues. In addition, Masson's trichrome staining was also performed thereon for microscopic observation of collagen fiber depositions in liver tissues.
In addition, the results obtained by performing hematoxylin and eosin (H&E) staining and Masson's trichrome staining as described above are shown in FIGS. 3 and 4, respectively. From the results of FIG. 3, the degrees of damages to liver tissue and the degrees of inflammatory cell infiltrations in liver tissues were measured. And also, from the results of FIG. 4, the degrees of collagen fiber depositions in liver tissues were measured.

[3] = 0 week (Day 0, before administration of test compound)
[4] = test compound 10 nM, incubation for 24 hours
[5] = test compound 100 nM, incubation for 4 hours
[6] = test compound 100 nM, incubation for 24 hours
[7] = 3 weeks after the administration
[8] = 4 weeks after the administration
[9] = liver tissue, H&E staining, after 4 weeks 25 mg/kg oral, hydrochloride
[10] = 0 week (Day 0, after 4 weeks DMN), 25 mg/kg oral once a day
[11] = 1 week, 25 mg/kg oral once a day after 4 weeks DMN
[12] = 2 weeks, 25 mg/kg oral once a day after 4 weeks DMN
[13] = 3 weeks, 25 mg/kg oral once a day after 4 weeks DMN
[14] = 4 weeks, 25 mg/kg oral once a day after 4 weeks DMN

| Structure (SMILES) | ALT values (average value) [1, 3] | AST values (average value) [1, 3] | ALT values (average value) ([1]; 1 week) | AST values (average value) ([1]; 1 week) | ALT values (average value) ([1]; 2 weeks) | AST values (average value) ([1]; 2 weeks) | ALT values (average value) ([1]; 3 weeks) | AST values (average value) ([1]; 3 weeks) | Absorbance (at 488 nm) (Hela cells; [4]) | Absorbance (at 488 nm) (Hela cells; [5]) | Absorbance (at 488 nm) (Hela cells; [6]) | further results |
| --- | --- | --- | --- | --- | --- | --- | --- | --- | --- | --- | --- | --- |
| COc1cc(-c2ccc(C(=O)NCCN(C(C)C)C(C)C)s2)ccc1O.Cl [Example 5, N-(2-(diisopropylamino)ethyl)-5-(4-hydroxy-3-methoxyphenyl)thiophene-2-carboxamide hydrochloride] | 68.90 U/L | 137.66 U/L | 96.60 U/L | 187.26 U/L | 108.80 U/L | 219.66 U/L | 111.00 U/L | 234.22 U/L | 1557.3 | 1348.0 | 1618.3 |  |
| CCN(CC)CCOc1ccc(-c2ccc(C(=O)NCCN(C(C)C)C(C)C)s2)cc1OC.Cl.Cl [Example 6, N-(2-(diisopropylamino)ethyl)-5-(4-(2-diethylamino)ethoxy-3-methoxyphenyl)thiophene-2-carboxamide hydrochloride] | 68.02 U/L | 141.78 U/L | 80.46 U/L | 220.86 U/L | 98.94 U/L | 215.42 U/L | 109.80 U/L | 249.56 U/L | 1784.6 | 1670.5 | 1893.7 |  |
| CCN(CC)CCOc1ccc(-c2ccc(C(=O)NC(C)C)s2)cc1OC.Cl [Example 9, N-isopropyl-5-(4-(2-diethylamino)ethoxy-3-methoxyphenyl)thiophene-2-carboxamide hydrochloride] | 67.64 U/L | 140.64 U/L | 103.78 U/L | 220.58 U/L | 111.80 U/L | 241.06 U/L | 117.92 U/L | 222.50 U/L | 1594.0 | 1320.2 | 1951.7 |  |
| CCN(CC)CCOc1ccc(-c2ccc(C(=S)NC(C)C)s2)cc1OC.Cl [Example 10, N-isopropyl-5-(4-(2-diethylamino)ethoxy-3-methoxyphenyl)thiophene-2-thiocarboxamide hydrochloride] | 67.46 U/L | 145.00 U/L | 85.06 U/L | 202.52 U/L | 102.94 U/L | 218.60 U/L | 102.94 U/L | 199.34 U/L | 1729.3 | 1390.0 | 1882.3 |  |
| CCN(CC)CCOc1ccc(-c2ccc(C(=O)NCC3(N(C)C)CCOCC3)s2)cc1OC.Cl.Cl [Example 21, N-((4-(dimethylamino)tetrahydro-2H-pyran-4-yl)methyl)-5-(4-(2-diethylamino)ethoxy-3-methoxyphenyl)thiophene-2-carboxamide hydrochloride] | 70.98 U/L | 142.10 U/L | 98.84 U/L | 201.30 U/L | 104.54 U/L | 208.26 U/L | 101.18 U/L | 195.10 U/L |  |  |  | ALT decrease in comparison with the DMN-administered group [2, 7]: 30%; AST decrease in comparison with the DMN-administered group [2, 7]: 22%; ALT decrease in comparison with the DMN-administered group [2, 8]: 26%; AST decrease in comparison with the DMN-administered group [2, 8]: 30%; collagen fiber depositions in liver tissues reduced in comparison with the DMN-administered group ([2]; after 4 weeks): about 62%; damages to liver tissue ameliorated in comparison with the DMN-administered group ([2]; after 4 weeks): about 50%; inflammatory cell infiltrations in liver tissues ameliorated in comparison with the DMN-administered group ([2]; after 4 weeks): ~55%; Degenerative hepatocyte numbers [2, 9]: 276.0 cells/1000 cells and 276.00 ± 16.64 cells/1000 cells; Inflammatory cell numbers [2, 9]: 85.33 cells/mm^2 and 85.33 ± 8.41 cells/mm^2; Collagen fiber occupied regions ([2]; liver tissue, Masson's trichrome staining, after 4 weeks 25 mg/kg oral, hydrochloride): 10.98 %/mm^2 and 10.98 ± 1.33 %/mm^2; ALT values (average value) [2, 10]: 198.02 U/L; AST values (average value) [2, 10]: 329.92 U/L; ALT values (average value) [2, 11]: 92.71 U/L; AST values (average value) [2, 11]: 158.91 U/L; ALT values (average value) [2, 12]: 57.61 U/L; AST values (average value) [2, 12]: 107.61 U/L; ALT values (average value) [2, 13]: 44.48 U/L; AST values (average value) [2, 13]: 112.06 U/L; ALT values (average value) [2, 14]: 48.33 U/L; AST values (average value) [2, 14]: 110.45 U/L |
